Source: US10201610B2, “Interference peptides and use thereof” (The University of Western Australia, priority 2014, dated 2019)
Ends that are not written are not given here.

Key:
SUM102 = assay: Cell Titer Glo cell viability assay, breast cancer cell line panel; assay type: cell-based; conditions: SUM102, 8 hours
Protocol: (§1) To test the specificity of the EN1-iPep in cell lines expressing EN1, the inventors delivered the iPeps into a panel of breast cancer cell lines expressing different amounts of EN1.
(§2) All peptides were synthetized at the UNC High-Throughput Peptide Synthesis and Array Facility at UNC. Taxol, Rotenone and Halofuginone (Sigma-Aldrich, St Louis, Mo.) were dissolved in DMSO. A total of […] or 1×10^3 breast cells for peptide and drug treatment respectively, were seeded in 96-well plates. Cells were exposed for 8 hours to the peptide and 48 to 72 hours for drug treatment. The cell viability after peptide/drug treatment was assayed with the Cell Titer Glo (CTG) assay (Promega, Madison, Wis., USA).

HUMEC = assay: as above; assay type: cell-based; conditions: 8 hours
Protocol: as §1, §2

SUM229 = assay: as above; assay type: cell-based; conditions: SUM229, 8 hours
Protocol: as §1, §2

SUM159PT = assay: as above; assay type: cell-based; conditions: 8 hours
Protocol: as §1, §2

MCF7 = assay: as above; assay type: cell-based; conditions: MCF7, 8 hours
Protocol: as §1, §2

MDA-MB-231 = assay: as above; assay type: cell-based; conditions: MDA-MB-231, 8 hours
Protocol: as §1, §2

[1] = system: SUM149PT cells overexpressing the EN1 cDNA (SUM149PT-EN1); assay: Cell Titer Glo cell viability assay in SUM149PT cells overexpressing the EN1 cDNA; assay type: cell-based, human; conditions: iPep624 72 hours
Protocol: In the neural system it has been proposed that EN1 protects neurons from mitochondrial complex I insults. Likewise, the inventors investigated whether EN1 could play a similar role in the basal-like breast cancer cell lines. The EN1 cDNA was overexpressed in SUM149PT cells using a lentiviral vector, and the transduced cells were treated with increasing concentrations of rotenone, a mitochondrial complex I toxin, and taxol, a […].
Plasmids expressing the EN1 cDNA (Genecopoeia, vector EX-T1021-Lv07) or EN1 shRNAs (Open Biosystems, pLKO-EN1) were transfected with Gagpol-, VSVG-, and RSV-REV-coding plasmids in HEK 293T cells using Lipofectamine and Plus Reagent cationic lipids (Invitrogen, Carlsbad, Calif.) and transduction of breast cells was performed as described in Beltran, A. S. et al. Breast Cancer Res 13, R94 (2011).
as §2

[2] = system: mRNA levels of COLA1, COLA2, S1004A and DDIT3 (CHOP); assay: Real time PCR of downstream effectors of EPRS in SUM149PT cells; assay type: cell-based, human
From the text: FIG. 6 EN1-Ipeps binds the endogenous Glutamyl-Prolyl tRNA synthetase (EPRS) target and regulates downstream EPRS effectors in breast cancer cells. (a) EN1-iPep624 (SEQ ID NO: 5) captures and binds EPRS from total extracts of SUM149-PT cells. Affinity-capture immunoprecipitation and western blot detection of EPRS using biotinylated iPeps as bait, and total extracts of SUM149-PT cells. Same input loading of extract is shown in the SDS-PAGE gel on the left. […] The immunoprecipitations were done at least three times and averages and standard errors between experiments are indicated (p<0.01*, p<0.001**). (b) Full length EN1 binds the endogenous EPRS in MDA-MB-231 and SUM149PT cells. Total extracts of MDA-MB-231 and SUM149PT expressing either a full length EN1 cDNA engineered with a N-terminal FLAG tag or an empty-vector control were processed by immunoprecipitation with an anti-FLAG antibody. Immunoprecipitated complexes were blotted with an EPRS-specific antibody to detect endogenous EPRS. The same amount of loaded extracts (INPUT) is shown with anti-tubulin as endogenous control. The enrichment of the immunoprecipitated products was determined by quantification of the bands by densitometry as described above, and data was normalized to iPep624ΔHEX (SEQ ID NO: 18) control. […] Cell viability was determined by a Cell Titer Glo assay and IC50 concentrations determined as described in FIG. 5. […]

With KKKRKVTDSQQPLVWPAWVYCTRYSDRPS [iPep624] the cell viability (SUM102) was “decreased cell viability”, the cell viability (HUMEC) was “no effect on cell viability” and the cell viability (SUM229) was “decreased cell viability”. The cell viability (SUM159PT) was “decreased cell viability”, the cell viability (MCF7) was “no effect on cell viability” and the cell viability (MDA-MB-231) was “no effect on cell viability”. The “cell viability defect after ectopic transfection of the EN1 cDNA” value [1] was “rescued”, the “DDIT3 mRNA in EN1-overexpressing cells” value ([2]; 15 μM active iPep over control) was “significantly up-regulated” and the “up-regulation of COLA1, COLA2 and S1004A mRNA in EN1-overexpressing cells” value ([2]; 15 μM active peptide) was “significantly reverted”.
